The target of the assay is human factor IXa (Homo sapiens (Human), UniProt P00740). In words: Determination of Inhibitory Activity Against Factor IXa. It is filed as biochemical. The settings on record: Factor IXa enzyme assay human; read-out: FIXa IC50. The method, then:
Inhibitory activity against factor IXa was tested using the substrate SPECTROFLUOR FIXa (american diagnostica inc.; 500 West Avenue, Stamford, Conn. 06902 USA; Pr. No. 299F) and human factor IXa (american diagnostica inc.; Pr. No. 449b). Test substances were dissolved in buffer A (50 mM α,α,α-tris(hydroxymethyl) methylamine (Tris), 100 mM NaCl, 5 mM CaCl2, 15% (v/v) ethylene glycol, pH 8.0) were mixed with factor IXa (0.1 μg/ml final concentration). The enzyme reaction was started by addition of SPECTROFLUOR FIXa (100 μM final concentration). After incubation for 60 minutes at room temperature, the reaction was stopped by the addition of 20% (v/v) acetic acid solution, and then the fluorescence value was measured (Excitation Wavelength: 355 nm, Emission Wavelength; 460 nm) in a microtiter plate reader (ARVO 1420 Multilabel Counter; PerkinElmer).
The IC50 was calculated from a dilution series of the test substance with the aid of the software, Symyx Assay Explorer (Symyx Technologies, Inc.).

human factor IXa, sequence (P00740 227-461): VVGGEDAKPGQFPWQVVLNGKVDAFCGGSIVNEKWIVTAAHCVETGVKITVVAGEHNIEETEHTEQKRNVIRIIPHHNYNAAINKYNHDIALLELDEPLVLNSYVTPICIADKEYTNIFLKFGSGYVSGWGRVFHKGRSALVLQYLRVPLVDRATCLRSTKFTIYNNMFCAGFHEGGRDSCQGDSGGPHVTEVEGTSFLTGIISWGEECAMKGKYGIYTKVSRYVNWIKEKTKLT
human factor IXa, sequence (P00740 47-191 partner): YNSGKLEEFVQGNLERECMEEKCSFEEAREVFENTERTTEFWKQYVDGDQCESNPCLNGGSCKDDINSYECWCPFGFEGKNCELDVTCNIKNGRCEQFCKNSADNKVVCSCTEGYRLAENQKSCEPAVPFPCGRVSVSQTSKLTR

Consider `Nc1noc2c(N3CC[C@@H](NC(=O)c4ccc(-n5cnc6ncccc65)cc4Cl)C3)ncc(Cl)c12` [Example 32, (R)—N-(1-(3-Amino-4-chloroisoxazolo[5,4-c]pyridin-7-yl)pyrrolidin-3-yl)-2-chloro-4-(1H-imidazo[4,5-b]pyridin-1-yl)benzamide], for which the IC50 is at most 100 nM.
For the compound `Nc1noc2c(N3CC[C@@H](NC(=O)c4ccc(-n5cnnc5)cc4)C3)ncc(Cl)c12` [Example 36, (R)—N-(1-(3-Amino-4-chloroisoxazolo[5,4-c]pyridin-7-yl)pyrrolidin-3-yl)-4-(4H-1,2,4-triazol-4-yl)benzamide], the IC50 is at most 100 nM.
As to `Nc1noc2c(N3CCC(NC(=O)c4ccc(-n5cnnc5)cc4Cl)C3)cccc12` (stereo not shown) [Example 1, N-(1-(3-Aminobenzo[d]isoxazol-7-yl)pyrrolidin-3-yl)-2-chloro-4-(4H-1,2,4-triazol-4-yl)benzamide], the IC50 was at most 100 nM.
As for `Nc1noc2c(N3CC[C@@H](NC(=O)c4ccc(-c5cnccn5)cc4Cl)C3)ncc(Cl)c12` [Example 33, (R)—N-(1-(3-Amino-4-chloroisoxazolo[5,4-c]pyridin-7-yl)pyrrolidin-3-yl)-2-chloro-4-(pyrazin-2-yl)benzamide], the IC50 was at most 100 nM.
With `Nc1noc2c(N3CC[C@@H](NC(=O)c4ccc(-n5cnnc5C(F)(F)F)cc4Cl)C3)ncc(Cl)c12` [Example 43, (R)—N-(1-(3-Amino-4-chloroisoxazolo[5,4-c]pyridin-7-yl)pyrrolidin-3-yl)-2-chloro-4-(3-(trifluoromethyl)-4H-1,2,4-triazol-4-yl)benzamide], the IC50 is at most 100 nM.
The same measure for `Nc1noc2c(N3CC[C@@H](NC(=O)c4ccc(-n5cnc(C6CC6)n5)cc4Cl)C3)cc(Cl)cc12` [Example 17, (R)—N-(1-(3-Amino-5-chlorobenzo[d]isoxazol-7-yl)pyrrolidin-3-yl)-2-chloro-4-(3-cyclopropyl-1H-1,2,4-triazol-1-yl)benzamide]: at most 100 nM; for `Nc1noc2c(N3CC[C@@H](NC(=O)c4ccc(-n5cc(CCO)cn5)cc4Cl)C3)ccc(Cl)c12` [Example 26, (R)—N-(1-(3-Amino-4-chlorobenzo[d]isoxazol-7-yl)pyrrolidin-3-yl)-2-chloro-4-(4-(2-hydroxyethyl)-1H-pyrazol-1-yl)benzamide]: at most 100 nM.
The same measure for `Nc1noc2c(N3CC[C@@H](NC(=O)c4ccc(-n5cnc(CCO)c5)cc4Cl)C3)ncc(Cl)c12` [Example 27, (R)—N-(1-(3-Amino-4-chloroisoxazolo[5,4-c]pyridin-7-yl)pyrrolidin-3-yl)-2-chloro-4-(4-(2-hydroxyethyl)-1H-imidazol-1-yl)benzamide]: at most 100 nM; for `Nc1noc2c(N3CC[C@@H](NC(=O)c4ccc(-n5cn[nH]c5=O)cc4Cl)C3)ncc(Cl)c12` [Example 46, (R)—N-(1-(3-Amino-4-chloroisoxazolo[5,4-c]pyridin-7-yl)pyrrolidin-3-yl)-2-chloro-4-(5-oxo-1,5-dihydro-4H-1,2,4-triazol-4-yl)benzamide]: at most 100 nM.
Consider `Cc1cc(N2CC[C@@H](NC(=O)c3ccc(-n4cnnc4)cc3Cl)C2)c2onc(N)c2c1Cl` [Example 12, (R)—N-(1-(3-Amino-4-chloro-5-methylbenzo[d]isoxazol-7-yl)pyrrolidin-3-yl)-2-chloro-4-(4H-1,2,4-triazol-4-yl)benzamide], for which the IC50 is at most 100 nM.
The figure for `Nc1noc2c(N3CC[C@@H](NC(=O)c4ccc(-n5cnnc5C(F)F)cc4Cl)C3)ncc(Cl)c12` [Example 28, (R)—N-(1-(3-Amino-4-chloroisoxazolo[5,4-c]pyridin-7-yl)pyrrolidin-3-yl)-2-chloro-4-(3-(difluoromethyl)-4H-1,2,4-triazol-4-yl)benzamide] is at most 100 nM.
As to `N#Cc1ncc(-c2ccc(C(=O)N[C@@H]3CCN(c4ncc(Cl)c5c(N)noc45)C3)c(Cl)c2)cn1` [Example 22, (R)—N-(1-(3-Amino-4-chloroisoxazolo[5,4-c]pyridin-7-yl)pyrrolidin-3-yl)-2-chloro-4-(2-cyanopyrimidin-5-yl)benzamide], the IC50 is at most 100 nM.
`Nc1noc2c(N3CC[C@@H](NC(=O)c4ccc(-c5ccc(=O)n(C(F)F)c5)cc4Cl)C3)ncc(Cl)c12` [Example 37, (R)—N-(1-(3-Amino-4-chloroisoxazolo[5,4-c]pyridin-7-yl)pyrrolidin-3-yl)-2-chloro-4-(1-(difluoromethyl)-6-oxo-1,6-dihydropyridin-3-yl)benzamide]: the IC50 is at most 100 nM.
Consider `Nc1nsc2c(N3CCC(NC(=O)c4c(Cl)cc(-n5cnnc5)cc4Cl)C3)cccc12` (stereo not shown) [Example 4, N-(1-(3-Aminobenzo[d]isothiazol-7-yl)pyrrolidin-3-yl)-2,6-dichloro-4-(4H-1,2,4-triazol-4-yl)benzamide], for which the IC50 lay within 100 to 1000 nM.
Regarding `Nc1noc2c(N3CC[C@@H](NC(=O)c4ccc(-c5ccnnc5)cc4Cl)C3)ncc(Cl)c12` [Example 30, (R)—N-(1-(3-Amino-4-chloroisoxazolo[5,4-c]pyridin-7-yl)pyrrolidin-3-yl)-2-chloro-4-(pyridazin-4-yl)benzamide], the half-maximal inhibitory concentration (IC50) was at most 100 nM.
In the case of `Nc1noc2c(N3CC[C@@H](NC(=O)c4ccc(-n5cncn5)cc4Cl)C3)ncc(Cl)c12` [Example 24, (R)—N-(1-(3-Amino-4-chloroisoxazolo[5,4-c]pyridin-7-yl)pyrrolidin-3-yl)-2-chloro-4-(1H-1,2,4-triazol-1-yl)benzamide], the IC50 was at most 100 nM.
For the compound `Cc1cc(-n2cncn2)ccc1C(=O)N[C@@H]1CCN(c2ccc(Cl)c3c(N)noc23)C1` [Example 19, (R)—N-(1-(3-Amino-4-chlorobenzo[d]isoxazol-7-yl)pyrrolidin-3-yl)-2-methyl-4-(1H-1,2,4-triazol-1-yl)benzamide], the IC50 lay within 100 to 1000 nM.
Regarding `Nc1noc2c(N3CC[C@@H](NC(=O)c4ccc(-n5cncn5)cc4F)C3)ccc(Cl)c12` [Example 18, (R)—N-(1-(3-Amino-4-chlorobenzo[d]isoxazol-7-yl)pyrrolidin-3-yl)-2-fluoro-4-(1H-1,2,4-triazol-1-yl)benzamide], the concentration for half-maximal inhibition (IC50) fell in the range of 100 to 1000 nM.
As for `Nc1noc2c(N3CC[C@@H](NC(=O)c4ccc(-n5cnc(CCO)n5)cc4Cl)C3)ccc(Cl)c12` [Example 23, (R)—N-(1-(3-Amino-4-chlorobenzo[d]isoxazol-7-yl)pyrrolidin-3-yl)-2-chloro-4-(3-(2-hydroxyethyl)-1H-1,2,4-triazol-1-yl)benzamide], the IC50 is at most 100 nM.
The same measure for `Nc1noc2c(N3CC[C@@H](NC(=O)c4ccc(-n5cnnc5)cc4Cl)C3)cc(Cl)c(Cl)c12` [Example 14, (R)—N-(1-(3-Amino-4,5-dichlorobenzo[d]isoxazol-7-yl)pyrrolidin-3-yl)-2-chloro-4-(4H-1,2,4-triazol-4-yl)benzamide]: at most 100 nM; for `Nc1noc2c(N3CC[C@@H](NC(=O)c4ccc(-c5ccc6nncn6c5)cc4Cl)C3)ncc(Cl)c12` [Example 38, (R)-4-([1,2,4]Triazolo[4,3-a]pyridin-6-yl)-N-(1-(3-amino-4-chloroisoxazolo[5,4-c]pyridin-7-yl)pyrrolidin-3-yl)-2-chlorobenzamide]: at most 100 nM.
With `Nc1noc2c(N3CC[C@@H](NC(=O)c4ccc(-n5cnc6ccccc65)cc4Cl)C3)ncc(Cl)c12` [Example 29, (R)—N-(1-(3-Amino-4-chloroisoxazolo[5,4-c]pyridin-7-yl)pyrrolidin-3-yl)-4-(1H-benzo[d]imidazol-1-yl)-2-chlorobenzamide], the IC50 is at most 100 nM.
The figure for `C[C@H]1CN(c2cccc3c(N)noc23)C[C@]1(C)NC(=O)c1c(Cl)cc(-n2cnnc2)cc1Cl` (relative stereo) [Example 7, N-((3R*,4S*)-1-(3-Aminobenzo[d]isoxazol-7-yl)-3,4-dimethylpyrrolidin-3-yl)-2,6-dichloro-4-(4H-1,2,4-triazol-4-yl)benzamide] is at most 100 nM; for `Cc1ncn(-c2ccc(C(=O)N[C@@H]3CCN(c4nc(C#N)cc5c(N)noc45)C3)c(Cl)c2)n1` [Example 41, (R)—N-(1-(3-Amino-5-cyanoisoxazolo[5,4-c]pyridin-7-yl)pyrrolidin-3-yl)-2-chloro-4-(3-methyl-1H-1,2,4-triazol-1-yl)benzamide] it is at most 100 nM.
Regarding `CC1(NC(=O)c2c(Cl)cc(-n3cnnc3)cc2Cl)CCN(c2cccc3c(N)noc23)C1` (stereo not shown) [Example 2, N-(1-(3-Aminobenzo[d]isoxazol-7-yl)-3-methylpyrrolidin-3-yl)-2,6-dichloro-4-(4H-1,2,4-triazol-4-yl)benzamide], the IC50 was at most 100 nM.
As for `Nc1noc2c(N3CC[C@@H](NC(=O)c4ccc(-n5cnnc5)cc4Cl)C3)ccc(F)c12` [Example 13, (R)—N-(1-(3-Amino-4-fluorobenzo[d]isoxazol-7-yl)pyrrolidin-3-yl)-2-chloro-4-(4H-1,2,4-triazol-4-yl)benzamide], the half-inhibitory concentration (IC50) lay in the range of 100 to 1000 nM.
As to `Cc1ncn(-c2ccc(C(=O)N[C@@H]3CCN(c4cc(C#N)cc5c(N)noc45)C3)c(Cl)c2)n1` [Example 34, (R)—N-(1-(3-Amino-5-cyanobenzo[d]isoxazol-7-yl)pyrrolidin-3-yl)-2-chloro-4-(3-methyl-1H-1,2,4-triazol-1-yl)benzamide], the IC50 was at most 100 nM.
On to `Nc1noc2c(N3CC[C@@H](NC(=O)c4ccc(-c5cncc(CCO)c5)cc4Cl)C3)ncc(Cl)c12` [Example 31, (R)—N-(1-(3-Amino-4-chloroisoxazolo[5,4-c]pyridin-7-yl)pyrrolidin-3-yl)-2-chloro-4-(5-(2-hydroxyethyl)pyridin-3-yl)benzamide], for which the IC50 was at most 100 nM.

A word on the IC50: it is the concentration that inhibits the measured activity by half.

The values are drawn from patent publication US9969724B2, “Factor IXa inhibitors” (Merck Sharp & Dohme Corp., priority 2014, dated 2018).
